{"source": "ChEMBL document CHEMBL5620382", "about": "“Fluoroindole chalcone analogues targeting the colchicine binding site of tubulin for colorectal oncotherapy” (Eur J Med Chem, 2023)", "key": {"[1]": {"tested_on": "HCT-116", "test": "Cytotoxicity against human HCT-116 cells assessed as growth inhibition measured after 48 hrs by CCK-8 assay", "format": "functional"}, "[2]": {"tested_on": "HCT-116", "test": "Antiproliferative activity against human HCT116 cells assessed as inhibition of proliferation measured after 24 hrs by CCK-8 assay", "format": "functional, cell-based", "conditions": "HCT-116, 24 h"}, "[3]": {"tested_on": "CT26", "test": "Induction of apoptosis in mouse CT26 cells assessed as dead cells at 2.5 to 40 nM measured after 24 hrs by PI/Annexin V-FITC staining based flow cytometry", "format": "functional, cell-based", "conditions": "dose 2.5-40 nM"}, "[4]": {"tested_on": "HCT-116", "test": "Anti-tumor activity against human HCT116 cells xenografted in BALB/c mouse assessed as inhibition of tumor growth at 1.5 to 3 mg/kg, ip thrice a week for three weeks", "format": "functional, organism-based", "conditions": "dose 1.5-3 mg/kg, time 3.0 weeks"}, "[5]": {"tested_on": "HCT-116", "test": "Anti-tumor activity against human HCT-116 cells xenografted in BALB/c mouse assessed as increase in necrotic area in tumor section at 3 mg/kg, ip thrice a week for three weeks by H and E staining based assay", "format": "functional, organism-based", "conditions": "time 3.0 weeks"}, "[6]": {"tested_on": "HCT-116", "test": "Anti-tumor activity against human HCT-116 cells xenografted in BALB/c mouse assessed as apoptosis in tumor section at 3 mg/kg, ip thrice a week for three weeks by TUNEL staining based assay", "format": "functional, organism-based", "conditions": "time 3.0 weeks"}, "[7]": {"test": "Toxicity in BALB/c mouse xenografted with human HCT-116 cells assessed as organ toxicity at 3 mg/kg, ip thrice a week for three weeks by […]", "format": "organism-based", "conditions": "in vivo, 504 h, time 3 weeks"}, "[8]": {"biological_target": "T1, Tubulin (Homo sapiens) (UniProt P68371+Q9H4B7+P0DPH7+P68366+Q13509+Q71U36+P04350+Q3ZCM7+P07437+P68363+Q9BQE3+Q6PEY2+Q13885+Q9BVA1+Q9BUF5)", "test": "Induction of microtubule stabilization in human HCT-116 cells at […] using 1:300 ratio of cell lysate/pronase incubated for 2 hrs by drug affinity reactive target stabilization (DARTS) assay", "format": "subcellular"}, "[9]": {"biological_target": "T1, Tubulin (Homo sapiens)", "test": "Inhibition of tubulin polymerization (unknown origin)", "format": "protein-complex assay", "conditions": "dose 12.5-100 µM"}, "[10]": {"biological_target": "T1, Tubulin (Homo sapiens)", "test": "Disruption of microtubule assembly in human HCT-116 cells assessed as reduced/disorganized microtubule network measured after 24 hrs by high-resolution microscopy", "format": "cell-based"}, "[11]": {"tested_on": "CT26", "test": "Disruption of microtubule assembly in mouse CT26 cells assessed as reduced/disorganized microtubule network measured after 24 hrs by high-resolution microscopy", "format": "functional, cell-based"}, "[12]": {"tested_on": "CT26", "test": "Induction of endoplasmic reticulum (ER) stress in mouse CT26 cells assessed as organelle vacuoles at 10 to 20 nM measured after 24 hrs by transmission electron microscope (TEM) analysis", "format": "functional, cell-based", "conditions": "dose 10-20 nM"}, "[13]": {"tested_on": "CT26", "test": "Induction of endoplasmic reticulum (ER) stress in mouse CT26 cells assessed as rough long-linear and irregularly dilated with locally verified expansion at 10 to 20 nM measured after 24 hrs by transmission electron microscope (TEM) analysis", "format": "functional, cell-based", "conditions": "dose 10-20 nM"}, "[14]": {"tested_on": "HCT-116", "test": "Induction of endoplasmic reticulum (ER) stress in human HCT-116 cells assessed as increase p-PERK expression at 10 to 20 nM measured after 24 hrs by Western blot analysis", "format": "functional, cell-based", "conditions": "dose 10-20 nM"}, "[15]": {"tested_on": "HCT-116", "test": "Induction of endoplasmic reticulum (ER) stress in human HCT-116 cells assessed as increase p-IRE1alpha expression at 10 to 20 nM measured after 24 hrs by Western blot analysis", "format": "functional, cell-based", "conditions": "dose 10-20 nM"}, "[16]": {"tested_on": "CT26", "test": "Induction of endoplasmic reticulum (ER) stress in mouse CT26 cells assessed as increase p-PERK expression at 10 to 40 nM measured after 24 hrs by Western blot analysis", "format": "functional, cell-based", "conditions": "dose 10-40 nM"}, "[17]": {"tested_on": "CT26", "test": "Induction of endoplasmic reticulum (ER) stress in mouse CT26 cells assessed as increase p-IRE1alpha expression at 10 to 40 nM measured after 24 hrs by Western blot analysis", "format": "functional, cell-based", "conditions": "dose 10-40 nM"}, "[18]": {"tested_on": "HCT-116", "test": "Induction of mitochondrial damage in human HCT-116 cells at 10 to 20 nM measured after 24 hrs by transmission electron microscope (TEM) analysis", "format": "functional, cell-based", "conditions": "dose 10-20 nM"}, "[19]": {"tested_on": "HCT-116", "test": "Induction of endoplasmic reticulum (ER) stress in human HCT-116 cells assessed as increase in ROS level at 10 to 20 nM measured after 24 hrs by DCFH-DA analysis", "format": "functional, cell-based", "conditions": "dose 10-20 nM"}, "[20]": {"tested_on": "HCT-116", "test": "Induction of endoplasmic reticulum (ER) stress in human HCT-116 cells assessed as increase in ROS level at 20 nM measured after 24 hrs by fluorescent analysis (reference value: 12%)", "format": "functional"}, "[21]": {"tested_on": "HCT-116", "test": "Induction of endoplasmic reticulum (ER) stress in human HCT-116 cells assessed as increase in ROS level at 1.25 nM measured after 24 hrs by fluorescent analysis (reference value: 12%)", "format": "functional"}, "[22]": {"tested_on": "HCT-116", "test": "Induction of endoplasmic reticulum (ER) stress in human HCT-116 cells assessed as increase in ROS level at 2.5 nM measured after 24 hrs by fluorescent analysis (reference value: 12%)", "format": "functional"}, "[23]": {"tested_on": "HCT-116", "test": "Induction of endoplasmic reticulum (ER) stress in human HCT-116 cells assessed as increase in ROS level at 5 nM measured after 24 hrs by fluorescent analysis (reference value: 12%)", "format": "functional"}, "[24]": {"tested_on": "HCT-116", "test": "Induction of endoplasmic reticulum (ER) stress in human HCT-116 cells assessed as increase in ROS level at 10 nM measured after 24 hrs by fluorescent analysis (reference value: 12%)", "format": "functional"}, "[25]": {"tested_on": "CT26", "test": "Induction of endoplasmic reticulum (ER) stress in mouse CT26 cells assessed as increase in ROS level at 5 nM measured after 24 hrs by fluorescent analysis (reference value: 14%)", "format": "functional"}, "[26]": {"test": "Toxicity in C57BL/6-APCmin/+ mouse model assessed as change in body weight at 3 mg/kg, ip treated for 45 days", "format": "organism-based", "conditions": "in vivo, 1080 h, time 45 day"}, "[27]": {"tested_on": "Mus musculus", "test": "Antitumor activity against C57BL/6-APCmin/+ mouse model assessed as reduction in number of tumors in intestine at 3 mg/kg, ip treated for 45 days relative to control", "format": "functional, organism-based", "conditions": "time 45.0 day"}, "[28]": {"tested_on": "Mus musculus", "test": "Antitumor activity against C57B/6-APCmin/+ mouse model assessed as increase in phosphorylation of IRE1alpha in tumors at 3 mg/kg, ip treated for 45 days relative to control", "format": "functional, organism-based", "conditions": "time 45.0 day"}}, "note": "Calls of active or inactive are those of the source. The calls are words filed in the database; no cut-off is given here.", "data": [{"smiles": "COc1cc(C(=O)/C(C)=C/c2c[nH]c3cc(F)ccc23)cc(OC)c1OC", "values": [{"measurement": "GI50", "setting": "[1]", "result": 79, "unit": "nM"}, {"measurement": "IC50", "setting": "[2]", "result": 4.52, "unit": "nM"}, {"measurement": "Activity", "setting": "[3]", "result": "Active"}, {"measurement": "Activity", "setting": "[4]", "result": "Active"}, {"measurement": "Activity", "setting": "[5]", "result": "Active"}, {"measurement": "Activity", "setting": "[6]", "result": "Active"}, {"measurement": "Activity", "setting": "[7]", "result": "Non-Toxic"}, {"measurement": "Activity", "setting": "[8]", "result": "Active"}, {"measurement": "inhibition", "setting": "[9]", "result": "Dose-Dependent Effect"}, {"measurement": "Activity", "setting": "[10]", "result": "Active"}, {"measurement": "Activity", "setting": "[11]", "result": "Active"}, {"measurement": "Activity", "setting": "[12]", "result": "Active"}, {"measurement": "Activity", "setting": "[13]", "result": "Active"}, {"measurement": "Activity", "setting": "[14]", "result": "Active"}, {"measurement": "Activity", "setting": "[15]", "result": "Active"}, {"measurement": "Activity", "setting": "[16]", "result": "Active"}, {"measurement": "Activity", "setting": "[17]", "result": "Active"}, {"measurement": "Activity", "setting": "[18]", "result": "Active"}, {"measurement": "Activity", "setting": "[19]", "result": "Active"}, {"measurement": "Activity", "setting": "[20]", "result": 74.4, "unit": "%"}, {"measurement": "Activity", "setting": "[21]", "result": 20.1, "unit": "%"}, {"measurement": "Activity", "setting": "[22]", "result": 35.6, "unit": "%"}, {"measurement": "Activity", "setting": "[23]", "result": 48.5, "unit": "%"}, {"measurement": "Activity", "setting": "[24]", "result": 73.8, "unit": "%"}, {"measurement": "Activity", "setting": "[25]", "result": 15, "unit": "%"}, {"measurement": "Activity", "setting": "[26]", "result": "Non-Toxic"}, {"measurement": "Activity", "setting": "[27]", "result": "Active"}, {"measurement": "Activity", "setting": "[28]", "result": "Active"}]}]}
